Results: patent US12201601B2, “Treatment for obesity” (Axsome Malta Ltd., priority 2013, dated 2025)

Assays:
[1] = 52-week repeated dose oral toxicity study in beagle dogs: food consumption; format: in vivo
Method: (§1) A 52-week repeated dose oral toxicity study with 13-week recovery was carried out in beagle dogs for R228060 (Formula Ib). Body weight and food consumption were monitored throughout the study (see Table 1).

[2] = classic rat self-administration model
[3] = 52-week repeated dose oral toxicity study with 13-week recovery in beagle dogs: body weight; format: in vivo; details: for Body weight variation during the treatment-free period only (value in brackets, Table 1): Day 455
Method: as §1

[4] = 6-month repeated dose oral toxicity study with 3-month recovery in rats: body weight; format: in vivo; details: for Body weight gain (in words) / Body weight (in words): p<0.05-0.001; for Body weight after cessation of treatment (in words): recovery period; for Decreases in body weight gain at the end of the treatment period: conclusion over dose levels
Method: (§2) A 6-month repeated dose oral toxicity study with 3-month recovery was carried out in rats for R228060 (Formula Ib). Body weight and food consumption were monitored throughout the study.

[5] = 6-month repeated dose oral toxicity study in rats: food consumption; format: in vivo
Method: as §2

[6] = nonclinical studies in mice, rats, and dogs: body weight and food consumption; format: in vivo
[7] = 6-week randomized, double blind, active and placebo-controlled study in adult subjects with major depressive disorder: body weight; format: in vivo, Humans; details: for Mean weight loss / Subjects with weight Decrease ≥7% / Subjects with weight Increase <7% / Subjects with weight Increase ≥7% / Subjects with weight No change/decrease <7% / Weight, Change from Baseline, Mean / Weight, Change from Baseline, Median: baseline to endpoint; for Weight, End point, Mean / Weight, End point, Median: 6-week study
Method: A 6-week randomized, double blind, parallel group, active and placebo-controlled study was carried out to assess the efficacy of R228060 in adult subjects with major depressive disorder (MDD). Body weight was monitored throughout the study.

[8] = female rats, 600/450 mg HCl-salt/kg
[9] = male rats, 600/450 mg HCl-salt/kg

NC(=O)OC[C@H](N)Cc1ccccc1 [Formula R228060, (R)-(beta-amino-benzenepropyl) carbamate]
Food consumption (in words) ([1]; all female dogs, 50 mg/kg bw/day, first week of treatment): lower food consumption, which was marked for 3/6 animals
Food consumption during the treatment-free period (in words) ([1]; dogs, any animal): No effect on food consumption
Lower food consumption ([1]; female dogs, 25 mg/kg bw/day, first week of treatment): −25 to −50 % of the daily portion
Reduced food consumption ([1]; male dogs, 50 mg/kg bw/day, mainly first week of treatment): about −50 % of the daily portion
Reduced food consumption compared to control ([1]; one male dog, 25 mg/kg bw/day, first week of treatment): about −40%
Slightly lower food consumption ([1]; three out of four female dogs, 10 mg/kg bw/day, first week of treatment): about −25 % of the daily portion
Abuse potential: rewarding properties (in words) (place preference model): no significant rewarding properties
Abuse potential: reinforcing properties (in words) [2]: not reinforcing
Body weight change (Table 1) ([3]; dogs, 10 mg/kg bw/day, females, Day 4): −6%
Body weight change (Table 1) ([3]; dogs, 10 mg/kg bw/day, females, Day 21): −2%
Body weight change (Table 1) ([3]; dogs, 10 mg/kg bw/day, females, Day 182): +26%
Body weight change (Table 1) ([3]; dogs, 10 mg/kg bw/day, females, Day 364): +25%
Body weight change (Table 1) ([3]; dogs, 10 mg/kg bw/day, males, Day 4): −1%
Body weight change (Table 1) ([3]; dogs, 10 mg/kg bw/day, males, Day 21): 0%
Body weight change (Table 1) ([3]; dogs, 10 mg/kg bw/day, males, Day 182): +22%
Body weight change (Table 1) ([3]; dogs, 10 mg/kg bw/day, males, Day 364): +32%
Body weight change (Table 1) ([3]; dogs, 25 mg/kg bw/day, females, Day 4): −7%
Body weight change (Table 1) ([3]; dogs, 25 mg/kg bw/day, females, Day 21): −4%
Body weight change (Table 1) ([3]; dogs, 25 mg/kg bw/day, females, Day 182): +16%
Body weight change (Table 1) ([3]; dogs, 25 mg/kg bw/day, females, Day 364): +26%
Body weight change (Table 1) ([3]; dogs, 25 mg/kg bw/day, males, Day 4): −4%
Body weight change (Table 1) ([3]; dogs, 25 mg/kg bw/day, males, Day 21): −4%
Body weight change (Table 1) ([3]; dogs, 25 mg/kg bw/day, males, Day 182): +71%
Body weight change (Table 1) ([3]; dogs, 25 mg/kg bw/day, males, Day 364): +19%
Body weight change (Table 1) ([3]; dogs, 50 mg/kg bw/day, females, Day 4): −9%
Body weight change (Table 1) ([3]; dogs, 50 mg/kg bw/day, females, Day 21): −12%
Body weight change (Table 1) ([3]; dogs, 50 mg/kg bw/day, females, Day 182): +11%
Body weight change (Table 1) ([3]; dogs, 50 mg/kg bw/day, females, Day 364): +9%
Body weight variation during the treatment-free period only (value in brackets, Table 1) ([3]; dogs, 50 mg/kg bw/day, females): +26% (+26%)
Body weight change (Table 1) ([3]; dogs, 50 mg/kg bw/day, females, Day 455 (end of treatment-free period)): +26% (+26%)
Body weight change (Table 1) ([3]; dogs, 50 mg/kg bw/day, males, Day 4): −9%
Body weight change (Table 1) ([3]; dogs, 50 mg/kg bw/day, males, Day 21): −12%
Body weight change (Table 1) ([3]; dogs, 50 mg/kg bw/day, males, Day 182): +7%
Body weight change (Table 1) ([3]; dogs, 50 mg/kg bw/day, males, Day 364): +9%
Body weight variation during the treatment-free period only (value in brackets, Table 1) ([3]; dogs, 50 mg/kg bw/day, males): +6%
Body weight change (Table 1) ([3]; dogs, 50 mg/kg bw/day, males, Day 455 (end of treatment-free period)): +12%
Mean body weight gain compared to control (in words) ([3]; dogs, treated groups, days 182 and 364): lower does-relative mean body weight gain
Day on which weight returned to the initial weight ([3]; female dogs, 10 mg/kg bw/day): 28 days
Mean body weight loss ([3]; female dogs, 10 mg/kg bw/day, first 4 days of treatment): 0.4 kg
Day on which weight returned to the initial weight ([3]; female dogs, 25 mg/kg bw/day): 42 days
Mean body weight loss ([3]; female dogs, 25 mg/kg bw/day, first 4 days of treatment): 0.5 kg
Mean body weight loss ([3]; female dogs, 50 mg/kg bw/day, first 4 days of treatment): 0.7 kg
Body weight gain during the treatment-free period compared to controls (in words) ([3]; group 4 females): higher body weight gain
Body weight gain during the treatment-free period compared to controls (in words) ([3]; group 4 males): only slightly higher
Day on which weight returned to the initial weight ([3]; high dose female group (50 mg/kg bw/day)): 77 days
Mean body weight loss ([3]; high dose female group (50 mg/kg bw/day), day 21): 0.8 kg
Day on which weights returned to the initial values ([3]; high dose male group (50 mg/kg bw/day)): 126 days
Mean body weight loss ([3]; high dose male group (50 mg/kg bw/day), day 21): 0.8 kg
Day on which weights returned to initial weights ([3]; male dogs, 25 mg/kg bw/day): 35 days
Mean body weight loss ([3]; male dogs, 25 mg/kg bw/day, first 4 days of treatment): 0.3 kg
Mean body weight loss ([3]; male dogs, 50 mg/kg bw/day, first 4 days of treatment): 0.7 kg
Body weight and body weight gain (in words) ([4]; female rats, 35 mg HCl-salt/kg body weight/day oral for 6 consecutive months): did not adversely affect body weight and body weight gain
Body weight gain decreased compared to the control group ([4]; female rats, 300 mg HCl-salt/kg body weight/day oral, week 13): 15%
Body weight gain decreased compared to the control group ([4]; female rats, 300 mg HCl-salt/kg body weight/day oral, week 26): 23%
Body weight gain (in words) ([4]; female rats, 300 mg HCl-salt/kg body weight/day, especially towards end of dosing period): moderate to pronounced decrease
Body weight (in words) ([4]; female rats, 300 mg HCl-salt/kg body weight/day): moderately decreased body weight
Remaining body weight difference at the end of the recovery period compared to control animals (in words) [4, 8]: only slightly lower
Body weight gain decreased ([4]; female rats, 600/450 mg HCl-salt/kg body weight/day oral, week 13): 18%
Body weight gain decreased ([4]; female rats, 600/450 mg HCl-salt/kg body weight/day oral, week 26): 21%
Body weight gain (in words) ([4]; female rats, 600/450 mg HCl-salt/kg body weight/day, from first week of dosing): moderate to pronounced decrease in body weight gain
Body weight (in words) ([4]; female rats, 600/450 mg HCl-salt/kg body weight/day): moderately decreased body weight
Body weight after cessation of treatment (in words) [4, 8]: partial regain of their normal body weight
Decreases in body weight gain at the end of the treatment period ([4]; female rats): ≤ 21%
Body weight gain decreased ([4]; male rats, 35 mg HCl-salt/kg body weight/day oral, week 13, vs control): 6%
Body weight gain decreased ([4]; male rats, 35 mg HCl-salt/kg body weight/day oral, week 26, vs control): 5%
Body weight and weight gain (in words) ([4]; male rats, 35 mg HCl-salt/kg body weight/day, significant weeks 8-12 (gain) and 10-12 (weight), p<0.05): slightly lower compared to control rats
Body weight gain decreased ([4]; male rats, 300 mg HCl-salt/kg body weight/day oral, week 13): 27%
Body weight gain decreased ([4]; male rats, 300 mg HCl-salt/kg body weight/day oral, week 26): 24%
Body weight and body weight gain (in words) ([4]; male rats, 300 mg HCl-salt/kg body weight/day, from first week of dosing, p<0.001): pronounced decrease in body weight and body weight gain
Body weight at the end of the three month recovery period compared to control animals (in words) [4, 9]: still moderately lower
Body weight gain decreased ([4]; male rats, 600/450 mg HCl-salt/kg body weight/day oral, week 13): 33%
Body weight gain decreased ([4]; male rats, 600/450 mg HCl-salt/kg body weight/day oral, week 26): 32%
Body weight and body weight gain (in words) ([4]; male rats, 600/450 mg HCl-salt/kg body weight/day, from week 1 onwards, p<0.001): pronounced decrease in body weight and body weight gain
Body weight after cessation of treatment (in words) [4, 9]: partial regain of their normal (control) body weight
Decreases in body weight gain at the end of the treatment period ([4]; male rats): up to 32%
Body weights and body weight gains (conclusion in words) ([4]; rats, starting at 35 mg HCl-salt/kg body weight/day for males and 300 for females): dose-related decrease
Statistically significant increases in food consumption (assessment in words) ([5]; female rats, 35, 300 and 600/450 mg HCl-salt/kg body weight level): toxicologically irrelevant
Food consumption (significance, in words) ([5]; rats, 300 and 600/450 mg HCl-salt/kg body weight level): statistically significant decreases
Food consumption (in words) ([5]; rats, both sexes, first weeks of dosing, starting at 35 mg HCl-salt/kg body weight/day for males and 300 for females): dose-related decrease in food consumption
Body weight, body weight gain and food consumption (in words) [6]: decreases in body weight and/or body weight gain as well as reductions in food consumption
Weight relative to placebo treated patients (in words) ([7]; 6-week clinical study in major depressive disorder patients): dose-related decrease in weight relative to placebo treated patients
Number of subjects with a decrease in weight of 7% or more ([7]; 200-mg group): 1 subjects
Percentage of subjects with a decrease in weight of 7% or more ([7]; 200-mg group): 0.9%
Mean weight loss ([7]; 200-mg group): 0.6 kg
Number of subjects with a decrease in weight of 7% or more ([7]; 400-mg group): 3 subjects
Percentage of subjects with a decrease in weight of 7% or more ([7]; 400-mg group): 2.5%
Mean weight loss ([7]; 400-mg group): 0.9 kg
Mean change from baseline to endpoint in BMI ([7]; R228060 200 mg): −0.2 kg/m^2
Subjects with weight Decrease ≥7% ([7]; R228060 200 mg (N = 116)): 1 (0.9) n (%)
Subjects with weight Increase <7% ([7]; R228060 200 mg (N = 116)): 39 (33.6) n (%)
Subjects with weight Increase ≥7% ([7]; R228060 200 mg (N = 116)): 1 (0.9) n (%)
Subjects with weight No change/decrease <7% ([7]; R228060 200 mg (N = 116)): 75 (64.7) n (%)
Weight, End point, Mean ([7]; R228060 200 mg group): 85.4 kg
Weight, End point, Median ([7]; R228060 200 mg group): 83.4 kg
Weight, Change from Baseline, Mean ([7]; R228060 200 mg group): -0.6 kg
Weight, Change from Baseline, Median ([7]; R228060 200 mg group): -0.5 kg
Mean change from baseline to endpoint in BMI ([7]; R228060 400 mg): −0.3 kg/m^2
Subjects with weight Decrease ≥7% ([7]; R228060 400 mg (N = 120)): 3 (2.5) n (%)
Subjects with weight Increase <7% ([7]; R228060 400 mg (N = 120)): 27 (22.5) n (%)
Subjects with weight Increase ≥7% ([7]; R228060 400 mg (N = 120)): 0 n (%)
Subjects with weight No change/decrease <7% ([7]; R228060 400 mg (N = 120)): 90 (75.0) n (%)
Weight, End point, Mean ([7]; R228060 400 mg group): 83.2 kg
Weight, End point, Median ([7]; R228060 400 mg group): 78.9 kg
Weight, Change from Baseline, Mean ([7]; R228060 400 mg group): -0.9 kg
Weight, Change from Baseline, Median ([7]; R228060 400 mg group): -0.9 kg
Reporting of anorexia (in words) ([7]; compound-treated groups, 6-week clinical study): increase in reporting of anorexia
